Reference: article PMC4534154 (Food Science & Nutrition, 2015)
Entries after “also recorded” stand apart in the source; their conditions may differ. Each block holds one compound with its values, some of them ahead of it. Where a SMILES comes first, the peptide text is derived from it.

Key:
[1] = target: T1, trypsin (Bos taurus, UniProt P00760); test: Simulated intestinal fluid (SIF, trypsin only) digestion of Ara h 1 peptides; type: in vitro ADME, bovine; settings: SIF containing only trypsin, 200 μg peptide in 1 mL, 37°C, samples at 1, 2, 4, 16 h, LC-MS peak integration; for SIF (trypsin) cleavage, formation of 1073.55 amu cleavage ion, in words: Fig. 2D; for peptide cleaved at the K287 site in SIF (formation of 2227.05 amu ion as percentage of sum of parental and fragment ions): Fig. 2C
T1 construct: purchased Sigma; host or cells: bovine pancreas (tissue-derived)
T1 sequence (P00760 24-246): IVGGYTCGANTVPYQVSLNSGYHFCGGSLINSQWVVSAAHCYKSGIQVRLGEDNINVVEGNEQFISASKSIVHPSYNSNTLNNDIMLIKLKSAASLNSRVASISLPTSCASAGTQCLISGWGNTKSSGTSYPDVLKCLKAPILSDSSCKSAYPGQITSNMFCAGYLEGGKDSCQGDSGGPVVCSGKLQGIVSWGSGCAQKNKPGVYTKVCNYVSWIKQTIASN
Source text: Pepsin from porcine gastric mucosa and trypsin from bovine pancreas were purchased from Sigma. Sequencing grade-modified trypsin was purchased from Promega. Water was obtained using a Synergy Ultrapure water system (Millipore). Modified and unmodified Ara h 1 peptides were synthesized (at least 95% pure) and purchased from New England Peptide. Serum samples from five peanut allergic patients were purchased from PlasmaLab International (Everett, WA).
Simulated gastric fluid (SGF) containing pepsin and simulated intestinal fluid (SIF) containing trypsin were used as described previously (Mattison et al. [2014b]). Synthetic peptides were resuspended in water just prior to use at a concentration of 1 mg/mL. Peptides (200 μg) were digested with SGF or SIF in 1 mL reaction volume for 1, 2, 4, or 16 h at 37°C. Samples (100 μL) were removed at the indicated time points, 5% formic acid was added, and samples were frozen at −80°C prior to analysis by mass spectrometry.
Analysis of trypsin/pepsin digestions: trypsin or pepsin digested Ara h 1 peptides were analyzed via liquid chromatography with tandem mass spectrometry (LC/MS/MS), using an Agilent 1200 LC system, an Agilent Chip Cube interface, and an Agilent 6520 Q-TOF tandem mass spectrometer (Agilent Technologies, Santa Clara, CA) as described in Mattison et al. (Mattison et al. [2014a]). One microliter sample aliquots were transferred to an enrichment column via capillary pump operating at a flow of 4 μL/min. The Nano pump was operated at a flow rate of 600 nL/min. An initial gradient (Solvent A-100% H2O, 0.1% Formic Acid; Solvent B- 90% ACN, 10% H2O and 0.1% Formic Acid) of 97% A was changed to 10% […] at 2 min, 70% at 15 min, 100% at 20 min, and back to 97% at 25 min. A postrun time of 5 min was employed for column equilibration. An initial MS scan was performed from m/z 300 to 1600 and up to six multiply charged ions were selected for MS/MS analysis. The raw MS/MS data files were extracted, sequenced, and searched against a custom database containing the Ara h 1 sequence using Spectrum Mill software (Agilent Technologies, Santa Clara, CA). For relative quantification, samples were run in MS-only mode and chromatographic peak areas were integrated into selected ions representative of the peptide cleavage products, resulting from the protease digest.
We evaluated the digestion of the modified and unmodified peptides using SIF containing only trypsin to mimic intestinal digestion conditions. […] To quantify the results, we integrated the relative peak areas of the 2227.05 and 1073.55 amu ions and undigested parental ions, and plotted the generation of the peptide cleavage products as a percentage of the sum of the parental and fragment ion values over time (Fig.2C and D). […]

[2] = tested on: Pepsin from porcine gastric mucosa; test: Simulated gastric fluid (SGF) containing pepsin; settings: 37°C, up to 16 h
[3] = tested on: trypsin from bovine pancreas; test: simulated intestinal fluid (SIF) containing trypsin; settings: 37°C, up to 16 h

Compound: CC[C@H](C)[C@H](N)C(=O)N[C@@H](Cc1ccccc1)C(=O)N[C@@H](CC(C)C)C(=O)N[C@@H](C)C(=O)NCC(=O)N[C@@H](CC(=O)O)C(=O)N[C@@H](CCCCN)C(=O)N[C@@H](CC(=O)O)C(=O)N[C@@H](CC(N)=O)C(=O)N[C@H](C(=O)N[C@H](C(=O)N[C@@H](CC(=O)O)C(=O)N[C@@H](CCC(N)=O)C(=O)N[C@H](C(=O)N[C@@H](CCC(=O)O)C(=O)N[C@@H](CCCCN)C(=O)O)[C@@H](C)CC)[C@@H](C)CC)C(C)C [IFLAG] (H-IFLAGDKDNVIDQIEK-OH)
SIF (trypsin) cleavage, formation of 1073.55 amu cleavage ion, in words [1]: very limited SIF proteolysis

Compound: IFLAGDK-CML-DNVIDQIEK
fragment found [2]: IFLAGDKDNVIDQ, major; also recorded: AGDKDNVIDQ, major; also recorded: IFLAGDKD, major
not cleaved [3]: the CML modification prevented trypsin cleavage of the peptide

Compound: IFLAGDKDNVIDQIEK
fragment found [2]: IFLAGDKDNVIDQ, major; also recorded: AGDKDNVIDQ, major; also recorded: IFLAGDKD, major
cleaved bond [3]: K547-D548

Compound: VAK-CML-ISMPVNTPGQFEDFFPASSR
fragment found [2]: VAKISM, major; also recorded: VAKISMPVNTPGQF, major
not cleaved [3]: less than 5% of the CML-modified VAK peptide was cleaved (16 h)

Compound: VAKISMPVNTPGQFEDFFPASSR [VAK-CML, synthetic Ara h 1 peptide, residues 285–307, with CML modification at lysine 287 (K287)]
peptide cleaved at the K287 site in SIF (formation of 2227.05 amu ion as percentage of sum of parental and fragment ions) ([1]; listed as CML-modified VAK): less than 5%

The next lines start with results.

SIF (trypsin) cleavage, formation of 1073.55 amu cleavage ion, in words [1]: prevented trypsin cleavage
Compound: CC[C@H](C)[C@H](N)C(=O)N[C@@H](Cc1ccccc1)C(=O)N[C@@H](CC(C)C)C(=O)N[C@@H](C)C(=O)NCC(=O)N[C@@H](CC(=O)O)C(=O)N[C@@H](CCCCNCC(=O)O)C(=O)N[C@@H](CC(=O)O)C(=O)N[C@@H](CC(N)=O)C(=O)N[C@H](C(=O)N[C@H](C(=O)N[C@@H](CC(=O)O)C(=O)N[C@@H](CCC(N)=O)C(=O)N[C@H](C(=O)N[C@@H](CCC(=O)O)C(=O)N[C@@H](CCCCN)C(=O)O)[C@@H](C)CC)[C@@H](C)CC)C(C)C [IFLAG-CML]

cleaved bond [3]: K287-I288
Compound: VAKISMPVNTPGQFEDFFPASSR
fragment found [2]: VAKISMPVNTPGQF, major; also recorded: VAKISM, major

peptide cleaved at the K287 site in SIF (formation of 2227.05 amu ion as percentage of sum of parental and fragment ions) [1]: about 50%
Compound: VAKISMPVNTPGQFEDFFPASSR [synthetic Ara h 1 peptide, residues 285–307, unmodified]
